According to patent US20260069584A1, “METHODS OF TREATING CHRONIC MYELOID LEUKEMIA USING THE TYROSINE KINASE INHIBITOR VODOBATINIB” (Sun Pharma Advanced Research Company Ltd., priority 2022, published 2026):
“Also recorded” adds a separate entry of the source.

Experiment: Part B: treatment-emergent cardiovascular adverse events (CVAEs)
Type: in vivo, human
Text: For the purpose of the present invention, the adverse events were graded as per the National Cancer Institute's, Common Terminology Criteria for Adverse Events (NCI-CTCAE) Version 4.03 and Version 5.0 (https://evs.nci.nih.gov/ftp1/CTCAE/About.html). It is a descriptive terminology which can be utilized for Adverse Event (AE) reporting.
AEs were graded as per NCI-CTCAE Version 5.0. In the present study, along with others most common AEs for which patients were monitored were thrombocytopenia, neutropenia and anemia, any AE reported by the patient after the completion of AE collection period and considered related to the study drug was reported.
Two CVAEs considered related to the compound of Formula I: one Grade 2 hypertension and one fatal intracranial hemorrhage (ICH) with concomitant disease progression to BP CML.
Table 22 below lists the medical history of patients and CVAEs that were reported in the patient during treatment.

[1] = Prior Ponatinib (N = 22), Any grade
[2] = Prior Ponatinib (N = 22), Grade 3/4
[3] = ≤2 prior TKIs (N = 18), Any grade
[4] = ≤2 prior TKIs (N = 18), Grade 3/4
[5] = ≥3 prior TKIs (N = 35), Any grade
[6] = ≥3 prior TKIs (N = 35), Grade 3/4

With `Cc1ccc(C(=O)NNC(=O)c2c(C)cccc2Cl)cc1C#Cc1cnc2ccccc2c1` [compound of Formula I, N′-(2-chloro-6-methylbenzoyl)-4-methyl-3-[2-(3-quinolyl)ethynyl]-benzohydrazide] the “patients with CVAEs” value (1 patient, less than or equal to 2 TKIs) was 5.5%, the “patients with CVAEs” value (10 patients, prior ponatinib) was 45.4% and the “CVAEs unrelated to the compound” value (12 patients with CV history) was 10. For the same compound, the “patients with CVAEs” value (13 patients, more than or equal to 3 TKIs) was 37.1%, the “patients with CVAEs, any grade” value (14 patients out of 53) was 26.4% and the “Treatment-emergent cardiovascular AE: Adverse Events Cluster - Cardiac and vascular events (%)” value (Overall (N = 53), Any grade) was “(26.4%)”. The “Treatment-emergent cardiovascular AE: Angina Pectoris (%)” value (Overall (N = 53), Any grade) was “(3.7%)”, the “Treatment-emergent cardiovascular AE: Arteriosclerosis (%)” value (Overall (N = 53), Any grade) was “(1.8%)” and the “Treatment-emergent cardiovascular AE: Cerebral haemorrhage (%)” value (Overall (N = 53), Any grade) was “(1.8%)”. For the same compound, the “Treatment-emergent cardiovascular AE: Congestive heart failure (%)” value (Overall (N = 53), Any grade) was “(1.8%)”, the “Treatment-emergent cardiovascular AE: Hot flush (%)” value (Overall (N = 53), Any grade) was “(1.8%)” and the “Treatment-emergent cardiovascular AE: Hypertension (%)” value (Overall (N = 53), Any grade) was “(7.5%)”. For the same compound, the “Treatment-emergent cardiovascular AE: Hypotension (%)” value (Overall (N = 53), Any grade) was “(1.8%)”, the “Treatment-emergent cardiovascular AE: Intermittent claudication (%)” value (Overall (N = 53), Any grade) was “(1.8%)” and the “Treatment-emergent cardiovascular AE: Intracranial haemorrhage (%)” value (Overall (N = 53), Any grade) was “(1.8%)”. For the same compound, the “Treatment-emergent cardiovascular AE: Mouth haemorrhage (%)” value (Overall (N = 53), Any grade) was “(1.8%)”, the “Treatment-emergent cardiovascular AE: Palpitations (%)” value (Overall (N = 53), Any grade) was “(1.8%)” and the “Treatment-emergent cardiovascular AE: Syncope (%)” value (Overall (N = 53), Any grade) was “(1.8%)”. For the same compound, the “Treatment-emergent cardiovascular AE: Transient ischaemic attack (%)” value (Overall (N = 53), Any grade) was “(1.8%)”, the “Treatment-emergent cardiovascular AE: Troponin I increased (%)” value (Overall (N = 53), Any grade) was “(1.8%)” and the “Treatment-emergent cardiovascular AEs: Deaths (%)” value (Overall (N = 53), Any grade) was “(1.8%)”. For the same compound, the “Treatment-emergent cardiovascular AEs: Dose interruption and restart (%)” value (Overall (N = 53), Any grade) was “(3.7%)”, the “Treatment-emergent cardiovascular AEs: Leading to drug withdrawal (%)” value (Overall (N = 53), Any grade) was “(1.8%)” and the “Treatment-emergent cardiovascular AEs: Related to study drug (%)” value (Overall (N = 53), Any grade) was “(3.7%)”. For the same compound, the “Treatment-emergent cardiovascular AEs: Serious Adverse Events (%)” value (Overall (N = 53), Any grade) was “(7.5%)”, the “Treatment-emergent cardiovascular AE: Adverse Events Cluster - Cardiac and vascular events (%)” value (Overall (N = 53), Grade 3/4) was “(5.6%)” and the “Treatment-emergent cardiovascular AE: Congestive heart failure (%)” value (Overall (N = 53), Grade 3/4) was “(1.8%)”. The “Treatment-emergent cardiovascular AE: Hypertension (%)” value (Overall (N = 53), Grade 3/4) was “(1.8%)”, the “Treatment-emergent cardiovascular AE: Syncope (%)” value (Overall (N = 53), Grade 3/4) was “(1.8%)” and the “Treatment-emergent cardiovascular AEs: Dose interruption and restart (%)” value (Overall (N = 53), Grade 3/4) was “(1.8%)”. For the same compound, the “Treatment-emergent cardiovascular AEs: Serious Adverse Events (%)” value (Overall (N = 53), Grade 3/4) was “(1.8%)”, the CVAEs during treatment (Patient 25000603, history: Hypertension, Myocardial ischaemia, prior TKI therapy 3, ponatinib received No) was “Hypertension” and the CVAEs during treatment (Patient 35600503, history: Intracranial hemorrhage, prior TKI therapy 3, ponatinib received No) was “Oral hemorrhage”. For the same compound, the CVAEs during treatment (Patient 35600706, history: Acute myocardial infarction, myocardial ischemia, prior TKI therapy 3, ponatinib received No) was “Hypertension”, the CVAEs during treatment (Patient 41000101, history: Hypertension, prior TKI therapy 3, ponatinib received No) was “Angina pectoris,; also recorded: Palpitations,; also recorded: Arteriosclerosis” and the CVAEs during treatment (Patient 84000202, history: Hypertension, prior TKI therapy 4, ponatinib received Yes) was “Hypertension,; also recorded: Hypotension”. The CVAEs during treatment (Patient 84000203, history: Hypertension, prior TKI therapy 6, ponatinib received Yes) was “Hot flush”, the CVAEs during treatment (Patient 84000206, history: Bradycardia, Hypertension, prior TKI therapy 5, ponatinib received Yes) was “Angina pectoris” and the “Treatment-emergent cardiovascular AE: Adverse Events Cluster - Cardiac and vascular events (%)” value [1] was “(45.4%)”. The “Treatment-emergent cardiovascular AE: Angina Pectoris (%)” value [1] was “(4.5%)”, the “Treatment-emergent cardiovascular AE: Cerebral haemorrhage (%)” value [1] was “(4.5%)” and the “Treatment-emergent cardiovascular AE: Congestive heart failure (%)” value [1] was “(4.5%)”. The “Treatment-emergent cardiovascular AE: Hot flush (%)” value [1] was “(4.5%)”, the “Treatment-emergent cardiovascular AE: Hypertension (%)” value [1] was “(9.1%)” and the “Treatment-emergent cardiovascular AE: Hypotension (%)” value [1] was “(4.5%)”. The “Treatment-emergent cardiovascular AE: Intermittent claudication (%)” value [1] was “(4.5%)”, the “Treatment-emergent cardiovascular AE: Syncope (%)” value [1] was “(4.5%)” and the “Treatment-emergent cardiovascular AE: Transient ischaemic attack (%)” value [1] was “(4.5%)”. The “Treatment-emergent cardiovascular AE: Troponin I increased (%)” value [1] was “(4.5%)”, the “Treatment-emergent cardiovascular AEs: Serious Adverse Events (%)” value [1] was “(13.6%)” and the “Treatment-emergent cardiovascular AE: Adverse Events Cluster - Cardiac and vascular events (%)” value [2] was “(13.6%)”. The “Treatment-emergent cardiovascular AE: Congestive heart failure (%)” value [2] was “(4.5%)”, the “Treatment-emergent cardiovascular AE: Hypertension (%)” value [2] was “(4.5%)” and the “Treatment-emergent cardiovascular AE: Syncope (%)” value [2] was “(4.5%)”. For the same compound, the “Treatment-emergent cardiovascular AEs: Serious Adverse Events (%)” value [2] was “(4.5%)”, the “CVAEs related to the compound” value (grade 2 hypertension and fatal intracranial hemorrhage) was 2 and the “major CVAEs” value (highest dose of 204 mg, as long as 24 months) was “did not result in major CVAEs”. For the same compound, the “permanent discontinuation due to CVAEs” value (human, in vivo) was 1, the “dose modifications due to CVAEs” value (in vivo) was “No dose modifications” and the “patients reporting CVAEs on study” value (of thirty patients with medical history of CVAEs) was 12 patients. The “grade 3 or 4 CVAEs” value (out of 53) was 5.6%, the “withdrawal criteria based on QTcF prolongation or safety laboratory tests” value (patients) was “No subject reached the subject withdrawal criteria” and the “Treatment-emergent cardiovascular AE: Adverse Events Cluster - Cardiac and vascular events (%)” value [3] was “(5.5%)”. For the same compound, the “Treatment-emergent cardiovascular AE: Congestive heart failure (%)” value [3] was “(5.5%)”, the “Treatment-emergent cardiovascular AE: Adverse Events Cluster - Cardiac and vascular events (%)” value [4] was “(5.5%)” and the “Treatment-emergent cardiovascular AE: Congestive heart failure (%)” value [4] was “(5.5%)”. The “Treatment-emergent cardiovascular AE: Adverse Events Cluster - Cardiac and vascular events (%)” value [5] was “(37.1%)”, the “Treatment-emergent cardiovascular AE: Angina Pectoris (%)” value [5] was “(5.7%)” and the “Treatment-emergent cardiovascular AE: Arteriosclerosis (%)” value [5] was “(2.8%)”. The “Treatment-emergent cardiovascular AE: Cerebral haemorrhage (%)” value [5] was “(2.8%)”, the “Treatment-emergent cardiovascular AE: Hot flush (%)” value [5] was “(2.8%)” and the “Treatment-emergent cardiovascular AE: Hypertension (%)” value [5] was “(11.4%)”. For the same compound, the “Treatment-emergent cardiovascular AE: Hypotension (%)” value [5] was “(2.8%)”, the “Treatment-emergent cardiovascular AE: Intermittent claudication (%)” value [5] was “(2.8%)” and the “Treatment-emergent cardiovascular AE: Intracranial haemorrhage (%)” value [5] was “(2.8%)”. The “Treatment-emergent cardiovascular AE: Mouth haemorrhage (%)” value [5] was “(2.8%)”, the “Treatment-emergent cardiovascular AE: Palpitations (%)” value [5] was “(2.8%)” and the “Treatment-emergent cardiovascular AE: Syncope (%)” value [5] was “(2.8%)”. For the same compound, the “Treatment-emergent cardiovascular AE: Transient ischaemic attack (%)” value [5] was “(2.8%)”, the “Treatment-emergent cardiovascular AE: Troponin I increased (%)” value [5] was “(2.8%)” and the “Treatment-emergent cardiovascular AE: Ventricular Extrasystoles (%)” value [5] was “(2.8%)”. For the same compound, the “Treatment-emergent cardiovascular AEs: Deaths (%)” value [5] was “(2.8%)”, the “Treatment-emergent cardiovascular AEs: Dose interruption and restart (%)” value [5] was “(5.7%)” and the “Treatment-emergent cardiovascular AEs: Leading to drug withdrawal (%)” value [5] was “(2.8%)”. The “Treatment-emergent cardiovascular AEs: Related to study drug (%)” value [5] was “(5.7%)”, the “Treatment-emergent cardiovascular AEs: Serious Adverse Events (%)” value [5] was “(11.4%)” and the “Treatment-emergent cardiovascular AE: Adverse Events Cluster - Cardiac and vascular events (%)” value [6] was “(5.7%)”. The “Treatment-emergent cardiovascular AE: Hypertension (%)” value [6] was “(2.8%)”, the “Treatment-emergent cardiovascular AE: Syncope (%)” value [6] was “(2.8%)” and the “Treatment-emergent cardiovascular AEs: Dose interruption and restart (%)” value [6] was “(2.8%)”. The “Treatment-emergent cardiovascular AEs: Serious Adverse Events (%)” value [6] was “(2.8%)”.
